Where two headings read alike, the source gives them in different places. Marks after values point to notes of the source that are not given here.

From patent US20060035905A1, “Formulations of phosphodiesterase 5 inhibitors and methods of use” (Becton, Dickinson and Company, priority 2004, published 2006) come the findings set out here.

One data set in a line: in vivo. More on the design: species or system Sprague-Dawley rats. The note with it: rat. The protocol:
Animal surgery: The rat's femoral vein was cannulated for blood sampling for every group. For IN rats, an incision was made in the trachea and a polypropylene tube was inserted as an airway. To seal the pass way between the nasal cavity and trachea, a sealed tube was inserted through the same incision into the posterior of nasal cavity. Finally the nasopalatine was closed with an adhesive.
Blood samples were drawn from the femoral vein at predetermined time points.
20 μl of 12% perchloric acid was added to 80 μl rat serum followed by vortexing. Then 100 μl of water was added to achieve the sample volume required by HPLC assay.

The conditions of data set [1]: for Clearance: dose normalized; for Bioavailability: versus IV mesylate.
Method: Intradermal injections were conducted at the flank region of Yucatan pigs using two different length of 31 gauge microneedles, 1.5 mm and 2.0 mm, noted as ID1.5 and ED 2.0, respectively. SC injections were conducted using regular half inch 30 gauge needles also at the flank region. […] After drug administration, blood samples were taken from the jugular vein port periodically and sera were collected after centrifugation and stored at −70° C. until analysis.
Pig serum samples (including pooled untreated serum) were briefly vortex-mixed and a 100 μl volume was transferred into a borosilicate glass screw-top conical test tube. 10 μl of the appropriate spiking solution was added to calibration and quality control (QC) samples. 10 μl of 50:50 methanol-water was added to study samples. […] The subsequent liquid/liquid extraction was performed by adding 2 ml of methyl t-butyl ether (MTBE) to each tube and vortex-mixing for 1 min, followed centrifugation at 3000 rpm for ˜10 min. Then the aqueous layer was frozen in dry-ice acetone bath and MTBE layer was decanted to glass tubes and dried in the TurboVap at 35° C. The samples were reconstituted in 200 μl acetonitrile containing 1% acetic acid and 0.025% TFA for LC-MS-MS analysis.
The standards and QCs for LC-MS-MS were made from a stock solution in MeOH-water 1:1, v/v. Calibration standard at concentrations of 10, 20, 500, 200, 500, 1000, 2500 and 5000 ng/ml. QCs were prepared at levels of 20, 2000, 4000 ng/ml. All standard and QCs were aliquoted and stored at 2-8° C. The LC-MS-MS system consisted of a Shimazu HPLC system (Kyoto, Japan) and a Sciex API 3000 tandem mass spectrometer (Ontario, Canada) with electrospray ionization in the positive ion mode [(+)-ESI]. The analytical column, Betasil silica of 5 μm, 50×3 mm I.D., was purchased from Keystone Scientific (Bellefonte, Pa., USA) and operated at 30° C. The mobile phase was a mixture of acetonitrile/water at 15/85 v/v and contains 1% acetic acid and 0.025% TFA. The injection volume was 30 μl. The run time was 3 min and the flow was 0.3 ml/min. The mass spectrometer was operated under multiple reaction monitoring mode with the ionspray needle maintained at 1.5 kV. The turbo gas temperature was 400° C. Nebulizing gas, curtain gas, and collision gas flows were at instrument settings of 8, 8, and 12, respectively. The declustering potential (DP), focusing potential (DP) and collision energy (CE) were at 65, 240, and 54 V, respectively.
Where [2] appears, read: IV, up to last sampling time point.

For the molecule `CCCc1nn(C)c2c(=O)[nH]c(-c3cc(S(=O)(=O)N4CCN(C)CC4)ccc3OCC)nc12` [sildenafil], in “in vivo” (Sprague-Dawley), the Cmax amounted to 547 ng/mL, the concentration at 5 min came out at 428 ng/mL, the “time of maximum systemic concentration” value was “around 15 min” and the “time of peak serum concentration” value was “approximately 10 minutes”. For the same molecule, in “in vivo” (Sprague-Dawley, Cmax), the Cmax is ~1000 ng/mL. In “in vivo” (sc), the “maximum serum drug level (in words)” value is “comparable maximum serum drug level to the ID group” and the “time of Cmax” value lay in the range of 30 to 60 min.

For the molecule sildenafil acetate, in data set [1] (ID 1.5 mm), the MRT was 1.85 h and the “Terminal t½” value was determined as 2.19 h.

Turning to sildenafil mesylate, the mean residence time MRT in data set [1] (ID 1.5 mm) worked out at 1.90 h; in data set [1] (ID 2.0 mm) it was 2.27 h; in data set [1] (setting [2]), 1.90 h; in data set [1] (SC), 2.43 h. The “Terminal t½” value in data set [1] (ID 1.5 mm) is 2.27 h; in data set [1] (ID 2.0 mm) it was 3.83 h; in data set [1] (IV), 3.01 h; in data set [1] (SC) it was 2.84 h. The Tmax in data set [1] (ID 1.5 mm) was 0.083^c hr; in data set [1] (ID 2.0 mm), 0.18 h; in data set [1] (IV, ~5 mg sildenafil, average) it was 0.0^b hr; in data set [1] (SC) it was 0.12 h. For the same molecule, the Clearance worked out at 42.2835 mL/min/kg in data set [1] (ID 1.5 mm), 35.7202 mL/min/kg in data set [1] (ID 2.0 mm), 23.558 mL/min/kg in data set [1] (IV) and 45.6718 mL/min/kg in data set [1] (SC). Further, the AUC came out at 116.21 ng·h/mL in data set [1] (ID 1.5 mm, up to last sampling time point); 133.56 ng·h/mL in data set [1] (ID 2.0 mm, up to last sampling time point); 229.41 ng·h/mL in data set [1] (setting [2]); 120.13 ng·h/mL in data set [1] (SC, up to last sampling time point). Also, the Bioavailability in data set [1] (ID 1.5 mm) is 56.95^c %; in data set [1] (ID 1.5 mm, listed as mesylate salt) it was ~55%; in data set [1] (ID 2.0 mm) it was 66.79^c %; in data set [1] (SC), 54.77^c %; in data set [1] (SC, listed as mesylate salt), ~55%. In addition, the Cmax in data set [1] (ID 1.5 mm, ~5 mg sildenafil, average) was determined as 93.13 ng/mL; in data set [1] (ID 2.0 mm, ~5 mg sildenafil, average), 70.98 ng/mL; in data set [1] (IV, ~5 mg sildenafil, average), 307.35 ng/mL; in data set [1] (SC, ~5 mg sildenafil, average), 111.28 ng/mL.

In general, Cmax refers to the peak of the concentration-time curve. A word on the MRT: it is a mean duration of stay, worked out from the concentration-time curve. For orientation: Tmax means the time at which the peak concentration occurs. For orientation: AUC means concentration integrated over time.
